Experimental data published in patent US7258999B2, “PTH responsive gene” (Wyeth, priority 2002, dated 2007).

Tests used:
PAIGB expression [1] = assay: Real time PCR of PAIGB expression in rat tibia; assay type: in vivo
Description: RNA isolation was performed on bone as well as from different cell lines used during experimentation. RNA was isolated from rat tibiae as follows. Following euthanasia by CO2 asphyxiation tibiae were dissected free of soft tissue as rapidly as possible with autoclaved instruments, wiped with autoclaved gauze soaked in ethanol and the epiphysis broken off at the proximal growth plate by hand and discarded. The tibia was then cut transversely with bone cutters just distal to the proximal growth plate and just proximal to the distal tibia-fibula junction to expose the trabecular bone and the bone marrow. The trabecular bone and marrow cavity was flushed with ice cold sterile PBS using a Lancer liquid transfer pipette (Oxford Labware, St. Louis, Mo.) to remove the marrow and the cleaned bone placed in liquid nitrogen.
Applicants performed multiplex real time PCR (TaqMan) analysis on previously DNAsed samples using gene specific probe and primers and 18S ribosomal RNA probe and primer sets purchased from Applied Biosystem. (Foster City, Calif.) The samples were DNAsed according to the protocol provided by Ambion (DNA-free kit). TaqMan probe and primers for PAIGB was identify using Primer Express computer program. The sequence for rat PAIGB TaqMan probe was 6FAM-5′[…] (SEQ ID NO: 16) forward and reverse primers were 5′[…] 3′ (SEQ ID NO:17) and 5′ […] 3′ (SEQ ID NO:18) respectively. The final concentrations for probes were 500 nM and 40 nM for PAIGB and 18S ribosomal RNA or GAPDH respectively. The concentrations of the primers were 500 nM for PAIGB forward and reversed primers while 18S primers were 10 and 20 nM for forward and reversed primer respectively or 40 nM for GAPDH primers. Standards for rat samples were made from rat tibia or brain RNA in the range of 250 ng to 0.1 ng, while standards for mouse specific TaqMan were made from mouse brain RNA and human standards from human brain RNA (Clonetech, Palo Alto, Calif.) spanning the same range of concentration. Primers and probes for mouse PAIGB were: forward 5′ […] 3′ (SEQ ID NO:19), reverse, 5′ […] 3′ (SEQ ID NO:20) anti-sense and probe 5′ 6FAM-[…] (SEQ ID NO:21). Primers and probes for human PAIGB were: forward 5′ […] 3′ (SEQ ID NO:22), reverse 5′ […] 3′(SEQ ID NO:23), and PROBE 5′ 6FAM-[…] 3′(SEQ ID NO: 24). The Taq-man analysis was done using ABI 7700 Sequence Detector under following conditions: 30 min at 48° C., 10 min at 95° C. and 40 cycles of 15 sec at 95° C. and 60 sec at 60° C. Analysis of real-time PCR analysis was performed using (Sequence Detector, Macintosh) program.
The initial experiments measured the expression of PAIGB in the rat tibia after 8 days of treatment. In order to examine the time course of PTH action on PAIGB expression, experiments were performed on rats treated with intermittent PTH injections (40 μg/kg body weight) and tibias were collected for RNA isolation as well as evaluation in BMD changes. Time points of sample collection were 6 hours, 2 days, 4 days and 8 days after intermittent PTH treatment. Real time PCR analysis was performed on isolated RNA samples using above described primers.
The observed increase in PAIGB expression in bone treated with PTH is dose-dependent (FIG. 10B). OVX rats with established osteopenia were treated with increasing concentration of human PTH (1-34): 5, 10, 20, 40 and 80 μg/kg of body weight for 8 days with one daily injection. Six hours after last injection animals were scarified and bone samples were harvested for RNA isolation as described in Experimental Procedure section.

[2] = system: PAIGB expression in U2OS cells; assay: RT-PCR and real time PCR of PAIGB expression in U2OS cells; assay type: cell-based, human; conditions: 1 or 10 nM
Description: RNA samples were subject to RT-PCR and Taq-man analysis using probe and primers to PAIGB polynucleotide sequences and GAPDH as well as 18S ribosomal RNA. RT-PCR was done using TaKaRa kit (Panvera, Shiga, Japan) according to manufacturer recommendation. RT reaction was done under following conditions: 30° C. for 10 min, 42° C. for 50 min, 99° C. for 5 min and 4° C. for 5 min. PCR conditions were: 94° C. for 5 min, 35 cycles of 94° C. for 2 min, 62° C. for 30″, 72° C. for 1 min and 30 sec, and 72° C. for 10 min. The PCR products were separated on 1% agarose gel.
Applicants performed multiplex real time PCR (TaqMan) analysis on previously DNAsed samples using gene specific probe and primers and 18S ribosomal RNA probe and primer sets purchased from Applied Biosystem. (Foster City, Calif.) The samples were DNAsed according to the protocol provided by Ambion (DNA-free kit). TaqMan probe and primers for PAIGB was identify using Primer Express computer program. The sequence for rat PAIGB TaqMan probe was 6FAM-5′[…] (SEQ ID NO: 16) forward and reverse primers were 5′[…] 3′ (SEQ ID NO:17) and 5′ […] 3′ (SEQ ID NO:18) respectively. The final concentrations for probes were 500 nM and 40 nM for PAIGB and 18S ribosomal RNA or GAPDH respectively. […]

PAIGB expression [3] = assay: Northern blot of PAIGB in rat tibia RNA; assay type: in vivo; conditions: intermittent PTH
Description: Isolated RNA was run on 1.2% agorase gel in 1×MOPS ((3-[N-morpholino]propanesulfonic acid) buffer) and formaldehyde. RNA gel was run in 1×MOPS (Sigma). RNA was transferred on nylon membrane (S&S) using Turbo-blot according to instruction provided by manufacturer (S&S). RADE fragment(s) as well as GAPDH or ciclophylin were labeled using random prime labeling kit (Gibco, BRL) according to provided instructions. Hybridization with labeled probes was performed using ExpressHyb (Sigma), at 68° C. over night. Blots were washed 2 times at room temperature for 15 min in low stringency buffer (2×SSC, 0.1% SDS), and 1 time at 65° C. for 15 min in […]. Blots were exposed over night using Kodak film.
In order to confirm the results from RADE experiments data, Northern blot analysis was done on RNA samples from rat tibia after intermittent and continuous PTH injections. […] In addition a multiple tissue northern blot was performed on the samples provided by commercially available blots. The northern blot analysis indicated very abundant expression of PAIGB in brain, but little expression in heart and lung.

human PTH (1-34)
increase of PAIGB expression in bone (PAIGB expression [1]; 40 μg/kg, one daily injection, 8 days, OVX rats): 10 fold
increase of PAIGB expression in bone (PAIGB expression [1]; 80 μg/kg, one daily injection, 8 days, OVX rats): 20 fold
effect on PAIGB expression in bone (PAIGB expression [1]; 5, 10 and 20 μg/kg, one daily injection, 8 days, OVX rats): did not have any effect
PAIGB expression over vehicle treated rats (PAIGB expression [1]; 4 days of intermittent injection): 20 fold
effect on PAIGB expression in tibia (PAIGB expression [1]; intermittent 40 μg/kg, days 4 and 8, compared with day 2): at the same magnitude
increase of PAIGB expression in tibia (PAIGB expression [1]; intermittent 40 μg/kg, two days): ~20 fold
PAIGB expression in human U2OS osteoblastic cells [2]: induction
increase of PAIGB expression vs vehicle (phosphor-imager, Northern blot) (PAIGB expression [3]): 36 fold
